The experiment deals with T1, Cytochrome P450 4A4 (Oryctolagus cuniculus, UniProt P10611).
T1 sequence (P10611 whole entry): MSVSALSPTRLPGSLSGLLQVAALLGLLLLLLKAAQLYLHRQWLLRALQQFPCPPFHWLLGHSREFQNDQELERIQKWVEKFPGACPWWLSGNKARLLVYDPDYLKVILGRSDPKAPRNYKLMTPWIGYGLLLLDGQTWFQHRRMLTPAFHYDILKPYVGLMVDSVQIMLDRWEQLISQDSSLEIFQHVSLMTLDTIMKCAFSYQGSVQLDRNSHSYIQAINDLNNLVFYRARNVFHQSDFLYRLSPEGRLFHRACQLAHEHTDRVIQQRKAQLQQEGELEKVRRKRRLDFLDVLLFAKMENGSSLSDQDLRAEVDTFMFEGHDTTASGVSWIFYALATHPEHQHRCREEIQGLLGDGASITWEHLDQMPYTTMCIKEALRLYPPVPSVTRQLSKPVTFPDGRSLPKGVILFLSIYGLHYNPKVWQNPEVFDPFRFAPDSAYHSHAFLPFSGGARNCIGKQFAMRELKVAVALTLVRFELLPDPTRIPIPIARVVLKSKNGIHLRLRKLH
As to the kind of experiment: Inactivation of prostaglandin E1 omega-hydroxylase (Cytochrome P450 4A4) in rabbit lung. It counts as tissue-based.

From ChEMBL document CHEMBL1126932, “Mechanism-based inhibitors of prostaglandin omega-hydroxylase: (R)- and (S)-12-hydroxy-16-heptadecynoic acid and 2,2-dimethyl-12-hydroxy-16-heptadecynoic acid” (J Med Chem, 1993) come the findings set out here.

In the case of `C#CCCCC(O)CCCCCCCCCC(C)(C)C(=O)O` (centres undefined), the Ki turned out to be 4.9 µM.

For `C#CCCC[C@@H](O)CCCCCCCCCCC(=O)O`, the Ki was 1.8 µM. In the case of `C#CCCC[C@H](O)CCCCCCCCCCC(=O)O`, the Ki was 3.6 µM. Under `C#CCCCC(O)CCCCCCCCCCC(=O)O` (racemic) stands 4.8 µM.
